From PubChem BioAssay AID1745844 (Carcinogenic Potency Database (CPDB), 2022)
Values joined by “and” are separate entries in the source; they are usually repeats but may differ in a detail not shown here. Identical values can stand only once. Active and inactive are the calls of the source. How the calls were made is not given here.

System: rodent lifetime carcinogenesis bioassay, tumor incidence TD50
Assay: chronic cancer bioassays in animals – CPDB, compiled studies (AID 1745844)
Details: inhaled

Compound: OCc1ccco1
- carcinogen call (mouse, strain B6C3F1, females, site: any site (literature study), lesion: several types, types named in the paper, dosed 104 weeks, study length 104 weeks): negative (inactive)
- TD50 (mouse, strain B6C3F1, females, site: lung, lesion: alveolar/bronchiolar adenoma + alveolar/bronchiolar carcinoma, dosed 104 weeks, study length 104 weeks): 41.8 mg/kg/day
- TD50 (mouse, strain B6C3F1, males, site: kidney, lesion: tubule adenoma + tubule carcinoma, dosed 104 weeks, study length 104 weeks): 263 mg/kg/day and 291 mg/kg/day
- TD50 (mouse, strain B6C3F1, males, site: kidney, lesion: tubule adenoma, dosed 104 weeks, study length 104 weeks): 538 mg/kg/day and 492 mg/kg/day
- TD50 (mouse, strain B6C3F1, males, site: kidney, lesion: tubule carcinoma, dosed 104 weeks, study length 104 weeks): 538 mg/kg/day and 744 mg/kg/day
- TD50 (rat, strain Fischer 344, females, site: all sites, lesion: mononuclear-cell leukemia, dosed 105 weeks, study length 105 weeks): 10.1 mg/kg/day
- TD50 (rat, strain Fischer 344, females, site: any site (literature study), lesion: several types, types named in the paper, dosed 105 weeks, study length 105 weeks): 7.57 mg/kg/day
- TD50 (rat, strain Fischer 344, females, site: clitoral gland, lesion: adenoma + adenoma, bilateral + carcinoma + carcinoma, bilateral, dosed 105 weeks, study length 105 weeks): 27.8 mg/kg/day
- TD50 (rat, strain Fischer 344, females, site: clitoral gland, lesion: adenoma + adenoma, bilateral, dosed 105 weeks, study length 105 weeks): 35.7 mg/kg/day
- TD50 (rat, strain Fischer 344, females, site: kidney, lesion: tubule adenoma + tubule carcinoma, dosed 105 weeks, study length 105 weeks): 110 mg/kg/day and 161 mg/kg/day
- TD50 (rat, strain Fischer 344, females, site: kidney, lesion: tubule adenoma, dosed 105 weeks, study length 105 weeks): 113 mg/kg/day and 108 mg/kg/day
- carcinogen call (rat, strain Fischer 344, females, site: nasal cavity, respiratory epithelium, lateral wall, lesion: adenoma, dosed 105 weeks, study length 105 weeks): e
- TD50 (rat, strain Fischer 344, females, site: nasal cavity, respiratory epithelium, lesion: adenoma, dosed 105 weeks, study length 105 weeks): 161 mg/kg/day
- TD50 (rat, strain Fischer 344, males, site: Zymbal's gland, lesion: adenoma + carcinoma, dosed 102 weeks, study length 105 weeks): 17.4 mg/kg/day
- TD50 (rat, strain Fischer 344, males, site: any site (literature study), lesion: several types, types named in the paper, dosed 102 weeks, study length 105 weeks): 1.46 mg/kg/day
- TD50 (rat, strain Fischer 344, males, site: nasal cavity, respiratory epithelium, lateral wall + nasal cavity, respiratory epithelium, lesion: adenoma + carcinoma + squamous-cell carcinoma, dosed 102 weeks, study length 105 weeks): 9.6 mg/kg/day
- TD50 (rat, strain Fischer 344, males, site: nasal cavity, respiratory epithelium, lesion: squamous-cell carcinoma, dosed 102 weeks, study length 105 weeks): 46.4 mg/kg/day
